From patent EP1209147A1, “CARBOXYLIC ACID DERIVATIVES AND ADHESION MOLECULE INHIBITORS CONTAINING THE SAME AS THE ACTIVE INGREDIENT” (TORAY INDUSTRIES, INC., priority 1999, dated 2001)
Read-outs that look alike come from different tables or passages of the source.

Assays:
[1] = target: VLA-4-IgG chimeric protein (Homo sapiens, UniProt P05556+P13612); experiment: Inhibition of binding between CS-1 peptide and VLA-4-IgG chimeric protein
Experimental: The adhesion-inhibition activity of the compound of the present invention against VLA-4 may be examined by using an adhesion assay system in which the adhesion between VLA-4-expressing cells such as Ramos cells and Jurkat cells, and fibronectin or a fragment thereof, e.g., a peptide containing CS-1 sequence (Gly Pro Glu Ile Leu Asp Val Pro Ser Thr) (hereinafter referred to as "CS-1 peptide") immobilized on an immunoplate is measured. Alternatively, a binding assay system in which the binding of the VLA-4 protein to the fibronectin or a fragment thereof such as CS-1 peptide immobilized on an immunoplate is measured may be employed. In the present invention, the inhibition assay of the compound is preferably measured by a binding assay system which measures the binding between a chimeric protein of VLA-4 and immunoglobulin (VLA-4-IgG chimeric protein) and CS-1 peptide (Japanese patent application No. H9-234544), although the method of measuring the inhibition activity is not restricted to this method. The term "VLA-4-IgG chimeric protein" herein means the heterodimer composite molecule in which a chimeric protein between α4 of VLA-4 and immunoglobulin (hereinafter referred to as "VLAα4·IgG chimeric protein), and a chimeric protein between β1 of VLA-4 and immunoglobulin (hereinafter referred to as "VLAβ1·IgG chimeric protein) are associated. As the immunoglobulin, although heavy chain or light chain of IgG, IgM or the like may be employed, in the present invention, IgG1 heavy chain is used. When testing the inhibition activity of the compound, it is preferred to preliminarily mix the VLA-4-IgG chimeric protein and the test compound.
Effects of Compounds for Inhibition of Binding Between CS-1 Peptide and VLA-4-IgG
A conjugate between a peptide (Gys Leu His Gly Pro Glu Ile Leu Asp Val Pro Ser Thr) containing CS-1 sequence and rabbit IgG (Sigma) was prepared by the reported method (Humphries, M.J. et al. J. Biol.Chem., 262, 6886-6892 (1987)). The obtained conjugate was diluted with phosphate buffer (hereinafter referred to as "PBS(-)", NISSUI) and the resulting solution was placed in wells of a 96-well immunoplate (NUNC) in an amount of 100 µl/well, followed by leaving the solution to stand at 4°C for 16 hours to immobilize the conjugate.
Then each well was washed twice with PBS(-), and a PBS solution containing 1% BSA heat-treated at 80°C for 10 minutes was placed in each well in an amount of 300 µl/well. The immunoplate was left to stand at 4°C for 3 hours, and then the solution in each well was removed by aspiration.
After preliminarily allowing each compound to react with VLA-4-IgG chimeric protein (100 µl) at room temperature for 20 minutes, the resulting solution was allowed to react with CS-1 peptide in each well at 30°C for 3 hours. Thereafter, non-bound VLA-4-IgG chimeric protein was removed by aspiration and each well was washed twice with 0.1% BSA-containing TBS buffer (150 mM NaCl,25 mM Tris-HCI, 1 mM MnCl2 pH 7.4). To the bound VLA-4-IgG chimeric protein, biotin-labeled anti-human IgG antibody (Vector) as an primary antibody was added, and then avidin-labeled horse radish peroxidase (Sigma) as a secondary antibody was added, and the reaction was allowed to occur. After the reaction, o-phenylenediamine as a substrate was added to color the solution, and the absorbance at 490 nm was measured. From the absorbance, the binding-inhibition activity of each test compound was determined.

Mouse Asthma Model = experiment: Mouse asthma model (OVA/Alum sensitization, OVA inhalation, airway anaphylaxis and BALF eosinophils); assay type: in vivo, BLAB/c mouse; settings: at a dose of not more than 150 mg/kg, topically or systemically
Experimental: A mixed solution containing aluminum hydroxide gel (Alum) on which ovalbumin (hereinafter "OVA") was adsorbed (20 ∝g OVA/2mg Alum/200 ∝l physiological saline) was intraperitoneally administered to each BLAB/c mouse (female, 7 weeks old, JAPAN CHARLES RIVER) at a dose of 200 ∝l ([…]) per time on DAY-1 and DAY-14 to sensitize the mouse. Then each mice was made to aspire 2% OVA dissolved in physiological saline on DAY-28, 29 and 30 to induce inflammation. Compound Nos. 143 and 236 used as the test compounds were dissolved in physiological saline and each solution was topically or systemically administered at 30 minutes before induction by OVA, and twice a day after induction.
On DAY-31, development of airway anaphylaxis was measured using a non-restrictive chamber (BUXCO). Then the bronchus of each mouse was incised and the bronchus and alveoli were washed (BAL) with 0.7 ml of physiological saline. After the washing, the washing fluid (BALF) of the bronchus and alveoli was recovered and centrifuged. The leukocytes contained in the BALF were subjected to site spin to prepare a smear specimen. After staining the specimen by May-Giemsa staining method, the leukocytes were grouped and counted under microscope to determine the number of eosinophils. The experiment was carried out using 6 to 8 mice in each group. The results are shown in terms of mean ± standard error.

Auricular Edema Model = experiment: Auricular edema model (IgE anti-DNP passive sensitization, DNFB induction); assay type: in vivo, BLAB/c mouse; settings: at a dose of not more than 150 mg/kg; topically or systemically, totally 3 times
Experimental: To each BLAB/c mouse (female, 7 weeks old, JAPAN CHARLES RIVER), mouse IgE anti-DNP antibody (5 mg/kg, SEIKAGAKU CORPORATION) was intravenously administered to passively sensitize the mouse. Twenty four hours later, 20 µl of 0.38% 2,4- dinitrofluorobenzene (DNFB, Aldrich) dissolved in acetone:olive oil (4:1) was applied to the auricle of the sensitized mouse to induce inflammation. The thickness of the auricle was measured until 24 hours after the induction with Digimatic Indicator (Mitutoyo) and the ear swelling rate was calculated according to the following equation: Ear Swelling Rate (%) = (A - B)/B x 100 [formula] • A: Thickness of right auricle at 24 hours after induction • B: Thickness of right auricle before induction
Twenty four hours after the induction, the auricle was cut off and fixed with formalin. After the fixation, continuous sections of the auricle were prepared and stained by Luna staining. The number of eosinophils in each section was counted and the total of them was defined as the number of eosinophils accumulated in the auricle.
Compound No. 140 used as the test compound was dissolved in physiological saline and the solution was intravenously administered totally 3 times, i.e., at the time of sensitization, at 8 hours and 24 hours after sensitization, at a dose of 400 mg/kg per each time. Further, to examine the effect of the compound when applied to the auricle, the compound was dissolved in ethanol, and the solution was applied to the auricle totally twice, i.e., at 8 hours after sensitization and at 1 hour before the induction, at a dose of 0.3 mg/ear. To the background group and the control group, physiological saline was intravenously administered and ethanol was applied, respectively. The experiment was carried out using 4 to 6 mice in each group. The results are shown in terms of mean ± standard error.
Twenty four hours after the induction, the auricle was cut off and fixed with formalin. After the fixation, continuous sections of the auricle were prepared and stained by Luna staining. The number of eosinophils in each section was counted. Compound No. 143 used as the test compound was dissolved in physiological saline and the solution was topically or systemically administered totally 3 times, i.e., at the time of sensitization, at 8 hours and 24 hours after sensitization. The experiment was carried out using 4 to 6 mice in each group. The results are shown in terms of mean ± standard error.

[2] = binding of VLA-4-IgG chimeric protein to immobilized CS-1 peptide, compound preincubated 20 minutes, read-out: Inhibition Activity(IC50 : nM)

Sequence of VLA-4-IgG chimeric protein (P13612 with tags, fused parts or gaps limits assumed): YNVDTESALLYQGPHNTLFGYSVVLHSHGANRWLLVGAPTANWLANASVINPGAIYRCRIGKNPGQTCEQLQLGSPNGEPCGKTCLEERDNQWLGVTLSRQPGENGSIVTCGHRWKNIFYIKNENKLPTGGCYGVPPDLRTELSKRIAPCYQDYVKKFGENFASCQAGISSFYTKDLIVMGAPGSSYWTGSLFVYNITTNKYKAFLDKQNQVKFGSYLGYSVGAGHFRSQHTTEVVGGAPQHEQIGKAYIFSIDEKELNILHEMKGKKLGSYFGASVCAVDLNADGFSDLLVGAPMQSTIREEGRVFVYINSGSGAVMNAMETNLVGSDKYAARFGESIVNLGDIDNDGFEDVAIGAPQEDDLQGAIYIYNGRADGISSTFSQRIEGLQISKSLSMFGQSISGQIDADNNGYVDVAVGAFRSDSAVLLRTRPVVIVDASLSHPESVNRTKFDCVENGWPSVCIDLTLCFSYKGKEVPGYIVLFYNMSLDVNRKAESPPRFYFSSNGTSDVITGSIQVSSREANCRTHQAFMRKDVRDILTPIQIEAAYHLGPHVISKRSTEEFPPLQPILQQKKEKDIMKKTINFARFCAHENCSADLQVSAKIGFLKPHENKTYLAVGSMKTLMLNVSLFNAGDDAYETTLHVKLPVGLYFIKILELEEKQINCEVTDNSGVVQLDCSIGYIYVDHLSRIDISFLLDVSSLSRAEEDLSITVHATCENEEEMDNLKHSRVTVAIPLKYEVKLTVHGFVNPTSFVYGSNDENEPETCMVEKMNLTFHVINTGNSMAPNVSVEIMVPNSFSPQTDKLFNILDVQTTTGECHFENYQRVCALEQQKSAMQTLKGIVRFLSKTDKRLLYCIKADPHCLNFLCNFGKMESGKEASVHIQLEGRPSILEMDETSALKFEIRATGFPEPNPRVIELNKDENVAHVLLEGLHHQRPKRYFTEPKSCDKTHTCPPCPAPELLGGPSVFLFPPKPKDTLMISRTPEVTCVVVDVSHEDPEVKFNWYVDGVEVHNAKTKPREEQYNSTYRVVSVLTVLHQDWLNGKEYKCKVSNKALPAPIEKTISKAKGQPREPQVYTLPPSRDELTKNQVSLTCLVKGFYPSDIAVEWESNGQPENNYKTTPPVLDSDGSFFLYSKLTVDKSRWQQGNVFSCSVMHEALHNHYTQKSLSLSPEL
Sequence of VLA-4-IgG chimeric protein (P05556 with tags, fused parts or gaps limits assumed): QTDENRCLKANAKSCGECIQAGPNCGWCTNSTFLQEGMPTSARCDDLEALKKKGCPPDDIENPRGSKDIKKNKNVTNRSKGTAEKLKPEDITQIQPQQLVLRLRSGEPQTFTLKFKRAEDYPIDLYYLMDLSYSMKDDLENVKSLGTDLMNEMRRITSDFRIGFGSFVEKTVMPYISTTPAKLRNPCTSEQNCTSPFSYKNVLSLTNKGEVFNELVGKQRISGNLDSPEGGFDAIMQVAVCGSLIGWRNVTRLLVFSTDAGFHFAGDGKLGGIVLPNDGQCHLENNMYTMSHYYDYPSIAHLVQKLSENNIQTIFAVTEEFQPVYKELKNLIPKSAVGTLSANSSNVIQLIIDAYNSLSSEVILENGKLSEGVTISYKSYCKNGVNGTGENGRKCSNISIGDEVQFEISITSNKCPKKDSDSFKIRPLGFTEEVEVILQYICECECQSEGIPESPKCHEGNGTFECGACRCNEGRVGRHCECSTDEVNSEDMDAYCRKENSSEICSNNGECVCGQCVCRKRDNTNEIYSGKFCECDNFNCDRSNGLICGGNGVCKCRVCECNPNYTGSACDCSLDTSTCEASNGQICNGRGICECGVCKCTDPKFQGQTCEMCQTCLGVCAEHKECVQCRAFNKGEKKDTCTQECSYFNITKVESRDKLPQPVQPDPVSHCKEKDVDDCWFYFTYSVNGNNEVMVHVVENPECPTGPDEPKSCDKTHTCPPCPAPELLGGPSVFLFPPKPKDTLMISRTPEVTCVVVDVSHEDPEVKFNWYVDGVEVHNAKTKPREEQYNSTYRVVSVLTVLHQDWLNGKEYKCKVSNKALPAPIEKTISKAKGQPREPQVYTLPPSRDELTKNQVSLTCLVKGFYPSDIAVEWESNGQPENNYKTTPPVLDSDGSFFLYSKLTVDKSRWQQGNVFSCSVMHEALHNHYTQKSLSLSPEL

| IC50 [1, 2] | Compound | IC50 [1] | other results |
| --- | --- | --- | --- |
| 120 nM | 3-((2(R)-((1-acetyl-3(R,S)-(4-hydroxyphenyl)pyrrolidin-2(R,S)-yl)carbonylamino)-2(R)-carbonylethyl)disulfanyl)-2(R)-(3,3-dimethylbutanoylamino)propionic acid [Example 74] | – | – |
| 160 nM | CC(C)CC(C(=O)NC(Cc1ccc(CCC(=O)O)cc1)C(=O)O)c1ccc(O)cc1 (single isomer, unassigned) [Example 120, 3-(4-(2-carboxyethyl)phenyl)-2-(2-(4-hydroxyphenyl)-4-methylpentanoylamino)propionic acid] | – | – |
| – | CC(C)CC(C(=O)N[C@@H](CCSC[C@H](NC(=O)C(CC(C)C)c1ccc(O)cc1)C(=O)O)C(=O)O)c1ccc(O)cc1 (stereo partly drawn) [Example 8, 4-(2(R)-carboxy-2(R)-(2(R,S)-(4-hydroxyphenyl)-4-methylpentanoylamino)ethylthio)-2(S)-(2(R,S)-(4-hydroxyphenyl)-4-methylpentanoylamino) butyric acid] | 200 nM | – |
| – | CC(C)CC(C(=O)N[C@@H](CCSC[C@H](NC(=O)CC(C)(C)C)C(=O)O)C(=O)O)c1ccc(O)cc1 (stereo partly drawn) [Example 14, 4-(2(R)-carboxy-2(R)-(3,3-dimethylbutanoylamino)ethylthio)-2(S)-(2(R,S)-(4-hydroxyphenyl)-4-methylpentanoylamino) butyric acid] | 500 nM | – |
| – | CC(C)CC(C(=O)NCCCSC[C@H](NC(=O)CC(C)(C)C)C(=O)O)c1ccc(O)cc1 (stereo partly shown) [Example 19] | 500 nM | – |
| – | CC(C)CC(C(=O)N[C@@H](CSSC[C@H](NC(=O)CC(C)(C)C)C(=O)O)C(=O)O)c1ccc(O)cc1 (stereo partly drawn) [Example 62, 3-((2(R)-carboxy-2(R)-(2(R,S)-(4-hydroxyphenyl)-4-methylpentanoylamino)ethyl)disulfanyl)-2(R)-(3,3-dimethylbutanoylamino)propionic acid] | 90 nM | – |
| 500 nM | CC(C)C[C@H](OCc1ccccc1)C(=O)N[C@@H](Cc1ccc(OCC(C)(C)C)cc1)C(=O)O [Example 102, 2(S)-(4-methyl-2(S)-(phenylmethoxy)pentanoylamino)-3-(4-(2,2-dimethylpropoxy)phenyl)propionic acid] | – | – |
| 1800 nM | CC(C)CC(NC(=O)CCc1ccc(CC(NC(=O)CC(C)(C)C)C(=O)O)cc1)c1ccc(O)cc1 (stereo not shown) [Example 131, 3-(4-(2-(N-(1-(4-hydroxyphenyl)-3-methylbutyl)carbamoyl)ethyl)phenyl)-2-(3,3-dimethylbutanoylamino)propionic acid] | – | – |
| 13 nM | COc1cccc(OC)c1C(=O)NCCCC(NC(=O)c1c(Cl)cccc1Cl)C(=O)O (stereo not shown) [Example 143, 2-((2,6-dichlorophenyl)carbonylamino)-5-((2,6-dimethoxyphenyl)carbonylamino)pentanoic acid] | – | accumulation of eosinophils to the lung (Mouse Asthma Model; BALF on DAY-31): inhibited; progress of airway anaphylaxis (Mouse Asthma Model; DAY-31): inhibited; accumulation of eosinophils to auricle induced by application of the antigen (Auricular Edema Model): inhibited; swelling of ear induced by application of the antigen (Auricular Edema Model): inhibited |
| 430 nM | O=C(NC(CCCCC(NC(=O)c1c(Cl)cccc1Cl)C(=O)O)C(=O)O)c1c(Cl)cccc1Cl (stereo not shown) [Example 154, 2,7-bis((2,6-dichlorophenyl)carbonylamino)octanedioic acid] | – | – |
| – | O=C(O)CCc1ccc(C[C@H](NC(=O)c2c(Cl)cccc2Cl)C(=O)O)cc1 [Example 161, 2(S)-2-((2,6-dichlorophenyl)carbonylamino)-3-(4-(2-carbaxyethyl)phenyl)propionic acid] | 64 nM | – |
| 780 nM | CC(C)C[C@H](NC(=O)Cc1ccc(NC(=O)Nc2ccccc2)cc1)C(=O)N[C@@H](Cc1ccc(CCC(=O)O)cc1)C(=O)O [Example 171, (2S)-2-((2S)-4-methyl-2-(2-(4-((phenylamino)carbonylamino)phenyl)acetylamino)pentanoylamino)-3-(4-(2-carboxyethyl)phenyl)propionic acid] | – | – |
| 13 nM | CC(C)C[C@H](NC(=O)Cc1ccc(NC(=O)Nc2ccccc2)cc1)C(=O)N[C@@H](CCSC[C@H](NC(=O)CC(C)(C)C)C(=O)O)C(=O)O [Example 176, 4-((2R)-2-(3,3-dimethylbutanoylamino)-2-carboxyethylthio)-(2S)-2-((2S)-4-methyl-2-(2-(4-((phenylamino)carbonylamino)phenyl)acetylamino)pentanoylamino)butyric acid] | – | – |
| – | O=C(N[C@@H](CCSC[C@H](NC(=O)c1c(Cl)cccc1Cl)C(=O)O)C(=O)O)c1c(Cl)cccc1Cl [Example 180, 4-((2R)-2-((2,6-dichlorophenyl)carbonylamino)-2-carboxyethylthio) (2S)-2-((2,6-dichlorophenyl)carbonylamino)butyric acid] | – | IC50 ([1]; read-out: Inhibition Activity(IC50 : nM), binding of VLA-4-IgG chimeric protein to immobilized CS-1 peptide, compound preincubated 20 minutes): 38 nM |

| Compound | IC50 [1, 2] | IC50 [1] | other results |
| --- | --- | --- | --- |
| (2R)-3-(((2S)-1-(2-cyclohexylacetyl)pyrrolidin-2-yl)methylthio)-2-(3,3-dimethylbutanoylamino)propionic acid [Example 193] | 2200 nM | – | – |
